d = 2'-deoxy (DNA); r = 2'-OH (RNA)
How the values were obtained:
[1] = system: Panc1-LUC tumors; assay: Survival of SCIDbg mice with s.c. Panc1-LUC tumors; assay type: in vivo; settings: 4 μg siG12D in 200 μl PBS i.p. weekly; over 41 days
Experimental: Mice were injected s.c. with 10×10^6 Panc1-LUC tumor cells in a total volume of 100 μl PBS, or into the tail of the pancreas with 10^6 cells in a total volume of 30 μl PBS.
In another experiment, 30 SCIDbg mice were injected s.c. with Panc1-LUC tumor cells, and were divided into 4 groups: (a) siG12D-DDD (12 μg siG12D per DDD)—2 DDD placed in each mouse; (b) empty DDD—2 DDD placed in each mouse; (c) 4 μg siG12D in 200 μl PBS injected intraperitoneally (i.p.) on a weekly basis; and (d) untreated. Tumor development was measured by caliper and Luciferase measurements. […] The difference in survival was statistically significant (p<0.05 compared to the other 3 groups).

[2] = system: Panc1 cells; assay: Methylene Blue viability test of transfected Panc1 cells, alone and with Gemzar; assay type: cell-based; settings: 72h post-transfection; 1 hr of treatment with 10 μM Gemzar
Experimental: FIG. 7. Gemzar® enhances siG12D-DDD effect. Panc1 cells were transfected using Lipofectamine™ with unmodified and modified siG12D and a scrambled (non-targeting) siRNA control molecule or were mock transfected (no siRNA). Cell viability was assessed 72 hrs post-transfection by the Methylene Blue (MB) test. Additional groups were transfected as described above, followed by 1 hr of treatment with 10 μM Gemzar®. The numbers 1-4 in the last column relate to the percent of inhibition of cellular growth, wherein the inhibition seen with the unmodified siRNA was assigned the value of 100%. 4, 3, 2, and 1 refer respectively to 75-100%, 50-75%, 25-50%, and 0-25% of the inhibition seen with the unmodified siRNA.
Experimental procedure: Panc1 cells were transfected using Lipofectamine™ with unmodified and modified siG12D and a scrambled (non-targeting) siRNA control molecule or were mock transfected (no siRNA). Cell viability was assessed 72 hrs post-transfection by the Methylene Blue (MB) test. Additional groups were transfected as described above, followed by 1 hr of treatment with 10 μM Gemzar®. At the exemplary time point of 72h, Gemzar® enhanced the effect of siG12D by nearly 10%. […] Other time points, for example 48h, 72h, 96h and 120h, may be utilized in additional studies.

sense GUUGGAGCUGAUGGCGUAGdTdT (SEQ ID No: 41), antisense CUACGCCAUCAGCUCCAACdTdT (SEQ ID No: 42) (sense GUUGGAGCUGAUGGCGUAGTT; antisense CUACGCCAUCAGCUCCAACTT; sugars from the 5' end r19 d2, backbone not given here) [siG12D, unmodified siRNA against G12D-mutated K-ras]
survival rate [1]: 33.33% | enhancement of the effect of siG12D on cell viability by Gemzar [2]: ~10%

— patent US9080173B2, “Methods and compositions for RNAi-based cancer treatment” (SILENSEED LTD., priority 2012, dated 2015)
